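Interpolation was linear, between the two tested concentrations surrounding the appropriate level; five concentrations were tested over 48 hours in 96-well plates. TGI marks complete inhibition of growth.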
Assays:
Test in all cases: growth of human tumour cells (NCI), 48 h
LOX IMVI melanoma = tested on: LOX IMVI melanoma
OVCAR-8 ovarian = tested on: OVCAR-8 ovarian
NCI-H460 lung = tested on: NCI-H460 lung
UO-31 renal = tested on: UO-31 renal
RPMI-8226 leukemia = tested on: RPMI-8226 leukemia
K-562 leukemia = tested on: K-562 leukemia
A498 renal = tested on: A498 renal
HCT-116 colon = tested on: HCT-116 colon
SF-539 CNS = tested on: SF-539 CNS
TK-10 renal = tested on: TK-10 renal

Compound	TGI (LOX IMVI melanoma)	TGI (OVCAR-8 ovarian)	TGI (NCI-H460 lung)	TGI (UO-31 renal)	TGI (RPMI-8226 leukemia)	TGI (K-562 leukemia)	TGI (A498 renal)	TGI (HCT-116 colon)	TGI (SF-539 CNS)	TGI (TK-10 renal)
c1ccc(N=C2c3ccsc3C(=Nc3ccccc3)c3ccsc32)cc1	1.38 µM	5.68 µM	4.03 µM	3.74 µM	11.7 µM	10.4 µM	14.8 µM	3.89 µM	3.83 µM	13.7 µM
CN=C(Nc1cccc(C(F)(F)F)c1)SCc1ccc(N=C=S)cc1	18.4 µM	40.7 µM	26.4 µM	28.4 µM	45.8 µM	> 100 µM	34.6 µM	29 µM	31.5 µM	23.5 µM
COc1ccc2c3c1O[C@H](c1ccc(O)cc1)[C@H]3[N+](C)(C)CC2	> 100 µM	> 100 µM	> 100 µM	> 100 µM	> 100 µM	88.2 µM	> 100 µM	> 100 µM	> 100 µM	> 100 µM
CN(C)CCc1c2c(nc3ccccc13)C(=O)c1cccnc1C2=O	0.13 µM	1.66 µM	0.5 µM	1.88 µM	1.82 µM	> 29.1 µM	1.72 µM	0.344 µM	0.671 µM	2.94 µM
CCOC(=O)Cn1nnc2ccc(Nc3nc4ccccc4nc3-c3ccccc3)cc21	> 100 µM	> 100 µM	> 100 µM	14.5 µM	> 100 µM	> 100 µM	> 100 µM	> 100 µM	> 100 µM	62.5 µM
OC(c1cccnc1Cl)c1nc2ccccc2c2ccnc(Cl)c12 (stereo not given)	> 100 µM	> 100 µM	> 100 µM	> 100 µM	8.57 µM	> 100 µM	17.5 µM	> 100 µM	12.4 µM	> 100 µM
CSc1c(C#N)c(N)n(-c2ccc(Cl)cc2)c(=O)c1C#N	> 100 µM	> 100 µM	> 100 µM	> 100 µM	> 100 µM	> 100 µM	> 100 µM	> 100 µM	> 100 µM	> 100 µM

Source: PubChem BioAssay (NCI)
